# Assay results taken from ChEMBL document CHEMBL1201861, “Genomics of Drug Sensitity in Cancer screening data, Wellcome Trust Sanger Institute”.
# pIC50: −log10 of the molar value.
# Experiments:
# Assay in all cases: cells
# BHT-101 = assay type: functional, cell-based, Homo sapiens; conditions: Homo sapiens, BHT-101
# Description: SANGER: Inhibition of human BHT-101 cell growth in a cell viability assay.
# ZR-75-30 = assay type: functional, cell-based, Homo sapiens; conditions: Homo sapiens, ZR-75-30;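 note: growth inhibition of ZR-75-30 cells, measured with a cell viability readout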
# Description: SANGER: Inhibition of human ZR-75-30 cell growth in a cell viability assay.
# OAW-28 = assay type: functional, cell-based, Homo sapiens; conditions: Homo sapiens, OAW-28;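 note: growth inhibition of OAW-28 cells, read out with a cell viability assay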
# Description: SANGER: Inhibition of human OAW-28 cell growth in a cell viability assay.
# KYSE-150 cell line = assay type: functional, cell-based, Homo sapiens; conditions: Homo sapiens, KYSE-150;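 note: growth inhibition of human KYSE-150 cells, read out with a cell viability assay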
# Description: SANGER: Inhibition of human KYSE-150 cell growth in a cell viability assay.
# RCM-1 = assay type: functional, cell-based, Homo sapiens; conditions: Homo sapiens, RCM-1;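 note: growth inhibition of the RCM-1 line, determined with a cell viability readout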
# Description: SANGER: Inhibition of human RCM-1 cell growth in a cell viability assay.
# NCI-H2170 = assay type: functional, cell-based, Homo sapiens; conditions: Homo sapiens, NCI-H2170;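 note: cell viability assay measuring growth inhibition of human NCI-H2170 cancer cells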
# Description: SANGER: Inhibition of human NCI-H2170 cell growth in a cell viability assay.
# RERF-LC-MS = assay type: functional, cell-based, Homo sapiens; conditions: Homo sapiens, RERF-LC-MS;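 note: growth inhibition of human RERF-LC-MS cells, read out by a cell viability assay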
# Description: SANGER: Inhibition of human RERF-LC-MS cell growth in a cell viability assay.
# NCI-H2452 = assay type: functional, cell-based, Homo sapiens; conditions: Homo sapiens, NCI-H2452;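 note: growth inhibition of NCI-H2452 cells, read out with a cell viability assay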
# Description: SANGER: Inhibition of human NCI-H2452 cell growth in a cell viability assay.
# HT1197 = assay type: functional, cell-based, Homo sapiens, HT-1197; conditions: Homo sapiens, HT1197
# Description: SANGER: Inhibition of human HT-1197 cell growth in a cell viability assay.
# Ca-Ski = assay type: functional, cell-based, Homo sapiens; conditions: Homo sapiens, Ca-Ski;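 note: cell viability assay measuring inhibition of Ca-Ski cell growth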
# Description: SANGER: Inhibition of human Ca-Ski cell growth in a cell viability assay.
# NCI-H727 = assay type: functional, cell-based, Homo sapiens; conditions: Homo sapiens, NCI-H727;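 note: growth inhibition of human NCI-H727 cells, read out with a cell viability assay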
# Description: SANGER: Inhibition of human NCI-H727 cell growth in a cell viability assay.
# EFO-21 = assay type: functional, cell-based, Homo sapiens; conditions: Homo sapiens, EFO-21;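 note: growth inhibition of EFO-21 cells measured with a viability assay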
# Description: SANGER: Inhibition of human EFO-21 cell growth in a cell viability assay.
# SW-620 = assay type: functional, cell-based, Homo sapiens; conditions: Homo sapiens, SW-620;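 note: growth inhibition of human SW-620 cells, measured by a cell viability assay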
# Description: SANGER: Inhibition of human SW620 cell growth in a cell viability assay.
# MKN-7 = assay type: functional, cell-based, Homo sapiens; conditions: Homo sapiens, MKN-7;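 note: growth inhibition of MKN-7 cells, read out with a cell viability assay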
# Description: SANGER: Inhibition of human MKN7 cell growth in a cell viability assay.
# HMV-2 cell line = assay type: functional, cell-based, Homo sapiens; conditions: Homo sapiens, HMV-2;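 note: growth inhibition of HMV-II cells, read out with a cell viability assay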
# Description: SANGER: Inhibition of human HMV-II cell growth in a cell viability assay.
# RD = assay type: functional, cell-based, Homo sapiens; conditions: Homo sapiens, RD
# Description: SANGER: Inhibition of human RD cell growth in a cell viability assay.
# SCC-9 = assay type: functional, cell-based, Homo sapiens; conditions: Homo sapiens, SCC-9;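 note: Read-out is a cell viability assay, with values giving inhibition of cell growth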
# Description: SANGER: Inhibition of human SCC-9 cell growth in a cell viability assay.
# SW13 = assay type: functional, cell-based, Homo sapiens; conditions: Homo sapiens, SW13;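 note: IC50 is inhibition of SW13 cell growth, read out with a cell viability assay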
# Description: SANGER: Inhibition of human SW13 cell growth in a cell viability assay.
# SAOS-2 = assay type: functional, cell-based, Homo sapiens; conditions: Homo sapiens, SAOS-2;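 note: growth inhibition of human Saos-2 cells determined by a cell viability assay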
# Description: SANGER: Inhibition of human Saos-2 cell growth in a cell viability assay.
# HCC1954 = assay type: functional, cell-based, Homo sapiens; conditions: Homo sapiens, HCC1954;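 note: growth inhibition of human HCC1954 cells, read out with a cell viability assay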
# Description: SANGER: Inhibition of human HCC1954 cell growth in a cell viability assay.
# IGR-1 = assay type: functional, cell-based, Homo sapiens; conditions: Homo sapiens, IGR-1;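 note: growth inhibition of human IGR-1 cells, read out with a cell viability assay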
# Description: SANGER: Inhibition of human IGR-1 cell growth in a cell viability assay.
# Detroit 562 = assay type: functional, cell-based, Homo sapiens; conditions: Homo sapiens, Detroit 562;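 note: growth inhibition of human Detroit 562 cells, read out by a cell viability assay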
# Description: SANGER: Inhibition of human Detroit562 cell growth in a cell viability assay.
# SCC-4 = assay type: functional, cell-based, Homo sapiens; conditions: Homo sapiens, SCC-4;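 note: growth inhibition of human SCC-4 cells, read out as cell viability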
# Description: SANGER: Inhibition of human SCC-4 cell growth in a cell viability assay.
# BPH-1 = assay type: functional, cell-based, Homo sapiens; conditions: Homo sapiens, BPH-1;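 note: cell viability assay measuring growth inhibition of human BPH-1 cells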
# Description: SANGER: Inhibition of human BPH-1 cell growth in a cell viability assay.
# KNS-62 = assay type: functional, cell-based, Homo sapiens; conditions: Homo sapiens, KNS-62;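 note: inhibition of cell growth, read out with a cell viability assay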
# Description: SANGER: Inhibition of human KNS-62 cell growth in a cell viability assay.
# KP-N-YN = assay type: functional, cell-based, Homo sapiens; conditions: Homo sapiens, KP-N-YN;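 note: growth inhibition of KP-N-YN cells, read out with a cell viability assay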
# Description: SANGER: Inhibition of human KP-N-YN cell growth in a cell viability assay.
# NCI-H2405 = assay type: functional, cell-based, Homo sapiens; conditions: Homo sapiens, NCI-H2405;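 note: growth inhibition of the human cell line, read out with a cell viability assay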
# Description: SANGER: Inhibition of human NCI-H2405 cell growth in a cell viability assay.
# SW1417 = assay type: functional, cell-based, Homo sapiens; conditions: Homo sapiens, SW1417;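 note: growth inhibition of human SW1417 cells, read out with a cell viability assay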
# Description: SANGER: Inhibition of human SW1417 cell growth in a cell viability assay.
# MDA-MB-415 = assay type: functional, cell-based, Homo sapiens; conditions: Homo sapiens, MDA-MB-415
# NY = assay type: functional, cell-based, Homo sapiens; conditions: Homo sapiens, NY
# Description: SANGER: Inhibition of human NY cell growth in a cell viability assay.
# NCI-H460 = assay type: functional, cell-based, Homo sapiens; conditions: Homo sapiens, NCI-H460;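 note: cell viability assay scoring growth inhibition of human NCI-H460 cells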
# Description: SANGER: Inhibition of human NCI-H460 cell growth in a cell viability assay.
# C3A = assay type: functional, cell-based, Homo sapiens; conditions: Homo sapiens, C3A;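 note: growth inhibition of C3A human cells, quantified with a cell viability readout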
# Description: SANGER: Inhibition of human C3A cell growth in a cell viability assay.
# ACHN = assay type: functional, cell-based, Homo sapiens; conditions: Homo sapiens, ACHN;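 note: cell viability read-out used to gauge how strongly growth of human ACHN cells is suppressed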
# Description: SANGER: Inhibition of human ACHN cell growth in a cell viability assay.
# CAKI-1 = assay type: functional, cell-based, Homo sapiens; conditions: Homo sapiens, CAKI-1;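 note: growth inhibition of CAKI-1 cells, measured by a cell viability assay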
# Description: SANGER: Inhibition of human CAKI-1 cell growth in a cell viability assay.
# HOP-92 = assay type: functional, cell-based, Homo sapiens; conditions: Homo sapiens, HOP-92;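 note: cell viability readout, with IC50 reflecting inhibition of HOP-92 cell growth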
# Description: SANGER: Inhibition of human HOP-92 cell growth in a cell viability assay.
# NCI-H2030 = assay type: functional, cell-based, Homo sapiens; conditions: Homo sapiens, NCI-H2030;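 note: growth inhibition of human NCI-H2030 cells, read out by a cell viability assay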
# Description: SANGER: Inhibition of human NCI-H2030 cell growth in a cell viability assay.
SMILES,pIC50 (BHT-101),pIC50 (ZR-75-30),pIC50 (OAW-28),pIC50 (KYSE-150 cell line),pIC50 (RCM-1),pIC50 (NCI-H2170),pIC50 (RERF-LC-MS),pIC50 (NCI-H2452),pIC50 (HT1197),pIC50 (Ca-Ski),pIC50 (NCI-H727),pIC50 (EFO-21),pIC50 (SW-620),pIC50 (MKN-7),pIC50 (RD),pIC50 (SCC-9),pIC50 (SAOS-2),pIC50 (HCC1954),pIC50 (IGR-1),pIC50 (Detroit 562),further results
COc1cc2c(Nc3ccc(NC(=O)c4ccccc4)cc3)ncnc2cc1OCCCN1CCOCC1,< 5.40,< 5.40,< 5.40,< 5.40,< 5.40,< 5.40,< 5.40,< 5.40,< 5.40,< 5.40,< 5.40,5.51,< 5.40,< 5.40,< 5.40,< 5.40,< 5.40,< 5.40,< 5.40,5.76,pIC50 (HMV-2 cell line): < 5.40; pIC50 (SW13): < 5.40; pIC50 (SCC-4): < 5.40; pIC50 (BPH-1): < 5.40; pIC50 (KNS-62): < 5.40; pIC50 (KP-N-YN): < 5.40; pIC50 (NCI-H2405): < 5.40; pIC50 (SW1417): < 5.40; pIC50 (MDA-MB-415): < 5.40; pIC50 (NY): < 5.40; pIC50 (NCI-H460): 5.51; pIC50 (C3A): < 5.40; pIC50 (ACHN): < 5.40; pIC50 (CAKI-1): < 5.40; pIC50 (HOP-92): < 5.40; pIC50 (NCI-H2030): < 5.40
Cn1cnc2c(F)c(Nc3ccc(Br)cc3Cl)c(C(=O)NOCCO)cc21 [SELUMETINIB],6.97,< 5.40,5.76,< 5.40,6.31,< 5.40,< 5.40,< 5.40,< 5.40,< 5.40,< 5.40,5.50,6.52,< 5.40,< 5.40,< 5.40,< 5.40,< 5.40,< 5.40,< 5.40,pIC50 (SCC-4): < 5.40; pIC50 (BPH-1): 6.74; pIC50 (KNS-62): < 5.40; pIC50 (KP-N-YN): < 5.40; pIC50 (NCI-H2405): < 5.40; pIC50 (SW1417): < 5.40; pIC50 (MDA-MB-415): < 5.40; pIC50 (NY): < 5.40; pIC50 (NCI-H460): 5.55; pIC50 (C3A): < 5.40; pIC50 (CAKI-1): < 5.40; pIC50 (HOP-92): < 5.40
